Reference: patent US10023557B2 (LifeSci Pharmaceuticals, Inc., priority 2015, dated 2018)

Key:
[1] = target: cellular kallikrein activity (Homo sapiens (Human), UniProt P03952); test: In vitro cellular assay (contact assay): kallikrein activity in ellagic acid-activated human plasma, Z-FR-2-AMC substrate; assay type: biochemical; details: human plasma activated with ellagic acid, 37° C.
[2] = target: human plasma kallikrein (Homo sapiens (Human), UniProt P03952); test: In vitro enzyme inhibition of human plasma kallikrein (PFR-AMC cleavage); assay type: biochemical; details: Pro-Phe-Arg-AMC substrate, 37° C., read-out: hPK IC50
Sequence of human plasma kallikrein (P03952 391-638): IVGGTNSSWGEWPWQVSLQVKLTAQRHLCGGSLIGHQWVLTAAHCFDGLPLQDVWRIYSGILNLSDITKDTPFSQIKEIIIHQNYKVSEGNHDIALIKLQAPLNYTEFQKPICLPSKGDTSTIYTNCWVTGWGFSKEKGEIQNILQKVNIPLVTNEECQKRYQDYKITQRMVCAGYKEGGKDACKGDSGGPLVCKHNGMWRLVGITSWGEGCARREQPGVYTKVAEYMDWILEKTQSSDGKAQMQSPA
Sequence of human plasma kallikrein (P03952 20-390 partner): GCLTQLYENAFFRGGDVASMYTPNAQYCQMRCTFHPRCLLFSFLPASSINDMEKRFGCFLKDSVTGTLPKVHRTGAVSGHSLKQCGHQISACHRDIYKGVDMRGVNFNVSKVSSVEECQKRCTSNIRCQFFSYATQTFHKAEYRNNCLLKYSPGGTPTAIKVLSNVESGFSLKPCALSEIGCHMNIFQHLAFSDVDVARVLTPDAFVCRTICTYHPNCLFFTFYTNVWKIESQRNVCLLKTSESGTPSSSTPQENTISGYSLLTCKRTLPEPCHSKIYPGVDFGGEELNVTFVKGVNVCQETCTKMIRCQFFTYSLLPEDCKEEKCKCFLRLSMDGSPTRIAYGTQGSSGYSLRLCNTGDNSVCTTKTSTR
In short: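 Human plasma kallikrein and compound, diluted in 50 mM Tris-HCl pH 7.5, 150 mM NaCl, 0.01% Triton X-100, preincubated 5 min at 37 °C before PFR-AMC was added.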

Sequence of cellular kallikrein activity (P03952 391-638): as the sequence (P03952 391-638) above
Sequence of cellular kallikrein activity (P03952 20-390 partner): as the sequence (P03952 20-390 partner) above

EC50 [1] [nM]	IC50 [2] [nM]	SMILES
< 100	< 100	Cc1cc(N)nc(C)c1CNC(=O)c1ccnc(Cc2ccc3ncc(C(C)C)cc3c2)c1 [Example 254, N-((6-amino-2,4-dimethylpyridin-3-yl)methyl)-2-((3-isopropylquinolin-6-yl)methyl)isonicotinamide]
< 100	< 100	CCCc1cnc2ccc(Cc3cc(C(=O)NCc4c(C)cc(N)nc4C)ccn3)cc2c1 [Example 255, N-((6-amino-2,4-dimethylpyridin-3-yl)methyl)-2-((3-propylquinolin-6-yl)methyl)isonicotinamide]
< 100	< 100	COc1cnc2ccc(Cc3cc(C(=O)NCc4c(C)cc(N)nc4C)ccn3)cc2c1 [Example 264, N-((6-amino-2,4-dimethylpyridin-3-yl)methyl)-2-((3-methoxyquinolin-6-yl)methyl)isonicotinamide]
100 to 1000	100 to 1000	Cc1cc(N)nc(C)c1CNC(=O)c1ccnc(C(C)(O)c2ccc3ncc(Cl)cc3c2)c1 (centres unmarked) [Example 277, N-((6-amino-2,4-dimethylpyridin-3-yl)methyl)-2-(1-(3-chloroquinolin-6-yl)-1-hydroxyethyl)isonicotinamide]
< 100	< 100	CCc1cnc2ccc(Cc3cc(C(=O)NCc4c(C)cc(N)nc4C)ccn3)cc2c1 [Example 286, N-((6-amino-2,4-dimethylpyridin-3-yl)methyl)-2-((3-ethylquinolin-6-yl)methyl)isonicotinamide]

More lines, now with the values behind:

SMILES	EC50 [1] [nM]	IC50 [2] [nM]
Cc1nc(N)ccc1CNC(=O)c1ccnc(Cc2cc(CN)c3ncc(Cl)cc3c2)c1 [Example 253, N-((6-amino-2-methylpyridin-3-yl)methyl)-2-((8-(aminomethyl)-3-chloroquinolin-6-yl)methyl)isonicotinamide]	< 100	< 100
Cc1cc(N)nc(C)c1CNC(=O)c1ccnc(Cc2cc(-c3nnn[nH]3)c3ncc(Cl)cc3c2)c1 [Example 272, N-((6-amino-2,4-dimethylpyridin-3-yl)methyl)-2-((3-chloro-8-(1H-tetrazol-5-yl)quinolin-6-yl)methyl)isonicotinamide]	100 to 1000	< 100
Cc1cc(N)nc(C)c1CNC(=O)c1ccnc(C(O)c2ccc3ncc(Cl)cc3c2)c1 (centres unmarked) [Example 275, N-((6-amino-2,4-dimethylpyridin-3-yl)methyl)-2-((3-chloroquinolin-6-yl)(hydroxy)methyl)isonicotinamide]	100 to 1000	< 100
Cc1cc(N)nc(C)c1CNC(=O)c1ccnc(C(N)c2ccc3ncc(Cl)cc3c2)c1 (centres unmarked) [Example 276, 2-[Amino-(3-chloro-quinolin-6-yl)-methyl]-N-(6-amino-2,4-dimethyl-pyridin-3-ylmethyl)-isonicotinamide]	100 to 1000	< 100
Cc1nc(N)ccc1CNC(=O)c1ccnc(Cc2ccc3ncc(CC(F)F)cc3c2)c1 [Example 279, N-((6-amino-2-methylpyridin-3-yl)methyl)-2-((3-(2,2-difluoroethyl)quinolin-6-yl)methyl)isonicotinamide]	100 to 1000	< 100
CCc1cnc2ccc(Cc3cc(C(=O)NCc4ccc5c(N)nccc5c4)ccn3)cc2c1 [Example 283, N-((1-aminoisoquinolin-6-yl)methyl)-2-((3-ethylquinolin-6-yl)methyl)isonicotinamide]	< 100	< 100
Cc1cnc2c(S(N)(=O)=O)cc(Cc3cc(C(=O)NCc4cc5c(Cl)c[nH]c5cc4F)ccn3)cc2c1 [Example 287, N-((3-chloro-6-fluoro-1H-indol-5-yl)methyl)-2-((3-methyl-8-sulfamoylquinolin-6-yl)methyl)isonicotinamide]	< 100	< 100
Cc1cnc2c(S(N)(=O)=O)cc(Cc3cc(C(=O)NCc4n[nH]c5ccc(Cl)cc45)ccn3)cc2c1 [Example 288, N-((5-chloro-1H-indazol-3-yl)methyl)-2-((3-methyl-8-sulfamoylquinolin-6-yl)methyl)isonicotinamide]	100 to 1000	< 100
Cc1cnc2c(S(N)(=O)=O)cc(Cc3cc(C(=O)NCc4ccc5c(N)nccc5c4)ccn3)cc2c1 [Example 289, N-((1-aminoisoquinolin-6-yl)methyl)-2-((3-methyl-8-sulfamoylquinolin-6-yl)methyl)isonicotinamide]	< 100	< 100
Cc1cnc2c(S(N)(=O)=O)cc(Cc3cc(C(=O)NCc4ccc5[nH]cc(Cl)c5c4F)ccn3)cc2c1 [Example 290, N-((3-chloro-4-fluoro-1H-indol-5-yl)methyl)-2-((3-methyl-8-sulfamoylquinolin-6-yl)methyl)isonicotinamide]	100 to 1000	< 100
Cc1cnc2c(S(N)(=O)=O)cc(Cc3cc(C(=O)NCc4cnc5[nH]cc(Cl)c5c4)ccn3)cc2c1 [Example 291, N-((3-chloro-1H-pyrrolo[2,3-b]pyridin-5-yl)methyl)-2-((3-methyl-8-sulfamoylquinolin-6-yl)methyl)isonicotinamide]	< 100	< 100
